Series [1] concerns Plasmodium berghei. As to the kind of experiment: Antimalarial activity against Plasmodium berghei infected in sc dosed mouse assessed as increase in mean survival time. It counts as functional, organism-based.
Another series has as its system Mus musculus. The series can be described thus: Toxicity in sc dosed mouse measured 2 to 5 days post-infection. Format: organism-based. The conditions noted are these: in vivo.
In series [2] the test system is Plasmodium berghei. As to the kind of experiment: Antimalarial activity against Plasmodium berghei infected in mouse assessed as increase in mean survival time at 40 mg/kg, sc. Format: functional. The settings on record: route subcutaneous.
Series [3] has as its system Plasmodium berghei. As to the kind of experiment: Antimalarial activity against Plasmodium berghei infected in mouse assessed as increase in mean survival time at 80 mg/kg, sc. It counts as functional. The conditions noted are these: route subcutaneous.
The test system of series [4] is Plasmodium berghei. As to the kind of experiment: Antimalarial activity against Plasmodium berghei infected in mouse assessed as increase in mean survival time at 160 mg/kg, sc. The conditions noted are these: route subcutaneous. It counts as functional.
Series [5] concerns Plasmodium berghei. As to the kind of experiment: Antimalarial activity against Plasmodium berghei infected in mouse assessed as increase in mean survival time at 320 mg/kg, sc. Format: functional. The conditions noted are these: route subcutaneous.
Series [6] has as its system Plasmodium berghei. As to the kind of experiment: Antimalarial activity against Plasmodium berghei infected in mouse assessed as cure rate at 640 mg/kg, sc measured on day 60 post-infection. Format: functional, organism-based. The arrangement: dose 640 mg/kg.

Active and inactive are the calls of the source. No cut-off for these calls is given here.

These results are taken from ChEMBL document CHEMBL3272062, “Difference in antimalarial activity between certain amino alcohol diastereomers” (J Med Chem, 1976).

On to `CN1CCCCC1C(O)c1cc2ccccc2c2cc(Br)ccc12.Cl` (stereo not drawn), for which the result with Plasmodium berghei [1] was Active. Also, the Activity entry with Mus musculus is on record as “Toxic”.

With `O=C(O)/C=C/C(=O)O.OC(c1cc(C(F)(F)F)nc2c(C(F)(F)F)cccc12)C1CCCNC1` (single isomer, unassigned; diastereomer 1), the MST in the series with Plasmodium berghei [2] came out at 5.9 days; in the series with Plasmodium berghei [3], 10.1 days; in the series with Plasmodium berghei [4], 11.2 days; in the series on Plasmodium berghei [5], 15.2 days.

Consider `OC(c1cc(C(F)(F)F)nc2c(C(F)(F)F)cccc12)C1CCCNC1` (single isomer, unassigned; diastereomer 2), for which the outcome in the series on Plasmodium berghei [6] was inactive.

As for `OC(c1cc(C(F)(F)F)nc2c(C(F)(F)F)cccc12)C1CCCNC1` (single isomer, unassigned; diastereomer 1), the result in the series with Plasmodium berghei [6] was Active.
